Assay results: ChEMBL document CHEMBL2069259, “Preclinical strategy to reduce clinical hepatotoxicity using in vitro bioactivation data for >200 compounds” (Chem Res Toxicol, 2012)

Legend:
[1] = tested on: Liver microsomes; conditions: human, 1.5 h, 100 µM
[2] = molecular target: T1, CYP3A4 (Homo sapiens, UniProt P08684); assay: Inhibition of human CYP3A4 assessed as ratio of IC50 in absence of NADPH to IC50 for presence of NADPH using diethoxyfluorescein as substrate after 30 mins
[3] = molecular target: T1, CYP3A4; assay: Inhibition of human CYP3A4 assessed as ratio of IC50 in absence of NADPH to IC50 for presence of NADPH using 7-benzyloxyquinoline as substrate after 30 mins
[4] = tested on: Liver microsomes; assay: Metabolic stability in human liver microsomes assessed as GSH adduct formation at 100 uM after 90 mins by HPLC-MS analysis; conditions: 1.5 h
[5] = molecular target: CYP2C19 (Homo sapiens, UniProt P33261); assay: Inhibition of human CYP2C19 assessed as ratio of IC50 in absence of NADPH to IC50 for presence of NADPH using 3-butyryl-7-methoxycoumarin as substrate after 30 mins
[6] = tested on: Liver microsomes; assay: Metabolic stability in human liver microsomes assessed as high signal/noise ratio (S/N of >100) by measuring GSH adduct formation at 100 uM after 90 mins by HPLC-MS analysis; conditions: 1.5 h
[7] = tested on: Liver microsomes; assay: Metabolic stability in human liver microsomes assessed as low signal/noise ratio (S/N of 1 to 10) by measuring GSH adduct formation at 100 uM after 90 mins by HPLC-MS analysis; type: ADME, Microsome; conditions: 1.5 h
[8] = probe 3-butyryl-7-methoxycoumarin

CYP2C19, sequence (P33261 whole entry): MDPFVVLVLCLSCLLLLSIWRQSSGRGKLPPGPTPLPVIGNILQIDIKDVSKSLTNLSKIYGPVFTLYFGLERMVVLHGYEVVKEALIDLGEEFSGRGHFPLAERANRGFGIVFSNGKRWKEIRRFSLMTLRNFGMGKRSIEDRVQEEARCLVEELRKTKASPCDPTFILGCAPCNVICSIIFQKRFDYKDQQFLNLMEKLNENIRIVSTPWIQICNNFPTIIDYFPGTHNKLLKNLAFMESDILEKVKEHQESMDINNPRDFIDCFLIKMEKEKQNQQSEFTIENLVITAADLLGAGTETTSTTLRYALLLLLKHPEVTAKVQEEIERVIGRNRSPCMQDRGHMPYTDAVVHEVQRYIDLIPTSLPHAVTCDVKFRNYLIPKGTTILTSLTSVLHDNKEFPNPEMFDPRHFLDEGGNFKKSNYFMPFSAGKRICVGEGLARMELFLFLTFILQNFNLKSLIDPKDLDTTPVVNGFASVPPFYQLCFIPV
T1 sequence (P08684 whole entry): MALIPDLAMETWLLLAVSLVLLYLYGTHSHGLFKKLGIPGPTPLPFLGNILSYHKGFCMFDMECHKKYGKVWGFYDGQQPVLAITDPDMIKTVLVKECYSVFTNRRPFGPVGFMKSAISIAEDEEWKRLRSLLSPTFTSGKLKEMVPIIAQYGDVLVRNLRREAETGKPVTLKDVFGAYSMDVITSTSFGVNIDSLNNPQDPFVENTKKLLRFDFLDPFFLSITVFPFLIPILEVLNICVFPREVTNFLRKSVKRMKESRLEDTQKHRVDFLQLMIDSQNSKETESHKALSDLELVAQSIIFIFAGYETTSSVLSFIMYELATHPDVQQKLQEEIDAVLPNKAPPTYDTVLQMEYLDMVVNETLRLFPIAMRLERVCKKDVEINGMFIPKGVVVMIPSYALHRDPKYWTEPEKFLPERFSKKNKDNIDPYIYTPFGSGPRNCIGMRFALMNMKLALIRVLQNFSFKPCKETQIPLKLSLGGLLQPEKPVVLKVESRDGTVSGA

## CC[C@H](C)C(=O)O[C@H]1C[C@@H](C)C=C2C=C[C@H](C)[C@H](CC[C@@H]3C[C@@H](O)CC(=O)O3)[C@H]21 [LOVASTATIN]
[1]
  Stability: Unstable

## CC[C@H]1OC(=O)[C@H](C)[C@@H](O[C@H]2C[C@@](C)(OC)[C@@H](O)[C@H](C)O2)[C@H](C)[C@@H](O[C@@H]2O[C@H](C)C[C@H](N(C)C)[C@H]2O)[C@](C)(OC)C[C@@H](C)C(=O)[C@H](C)[C@@H](O)[C@]1(C)O [CLARITHROMYCIN]
[2]; probe diethoxyfluorescein
  IC50 shift at 0.5 h: > 5
[3]; probe 7-benzyloxyquinoline
  IC50 shift at 0.5 h: > 5
[4]
  Stability: Stable

## C#C[C@]1(O)CC[C@H]2[C@@H]3CCc4cc(OC)ccc4[C@H]3CC[C@@]21C [MESTRANOL]
[2]; probe diethoxyfluorescein
  IC50 shift at 0.5 h: > 5
[3]; probe 7-benzyloxyquinoline
  IC50 shift at 0.5 h: > 5
[1]
  Stability: Unstable

## CN(C)CCC=C1c2ccccc2CCc2ccccc21 [AMITRIPTYLINE]
[5]; [8]
  IC50 shift at 0.5 h: < 2
[6]
  Stability: Unstable

## C#C[C@]1(O)CC[C@H]2[C@@H]3CCC4=Cc5oncc5C[C@]4(C)[C@H]3CC[C@@]21C [DANAZOL]
[5]
  IC50 shift at 0.5 h: < 2
[1]
  Stability: Unstable

## COc1cc(C(=O)NS(=O)(=O)c2ccccc2C)ccc1Cc1cn(C)c2ccc(NC(=O)OC3CCCC3)cc12 [ZAFIRLUKAST]
[2]; probe diethoxyfluorescein
  IC50 shift at 0.5 h: > 5
[3]; probe 7-benzyloxyquinoline
  IC50 shift at 0.5 h: 2

## Cc1cc(C(C)(C)C)c(O)c(C(C)(C)C)c1 [BUTYLATED HYDROXYTOLUENE]
[7]
  Stability: Unstable

## C[C@H]1[C@H](c2ccccc2)OCCN1C [PHENDIMETRAZINE]
[7]
  Stability: Unstable

## CN1C(C(=O)Nc2ccccn2)=C(O)c2ccccc2S1(=O)=O [PIROXICAM]
[7]
  Stability: Unstable

## Cc1ccnc2c1NC(=O)c1cccnc1N2C1CC1 [NEVIRAPINE]
[2]; probe diethoxyfluorescein
  IC50 shift at 0.5 h: 2
[4]
  Stability: Stable

## CC(C(=O)O)c1ccc(N2CC=CC2)c(Cl)c1 (configuration not stated) [PIRPROFEN]
[1]
  Stability: Unstable

## CC(C)[C@H]1CC[C@H](C(=O)N[C@H](Cc2ccccc2)C(=O)O)CC1 [NATEGLINIDE]
[1]
  Stability: Unstable

## C[C@H]1[C@H](NC(=O)/C(=N\OC(C)(C)C(=O)O)c2csc(N)n2)C(=O)N1S(=O)(=O)O [AZTREONAM]
[6]
  Stability: Unstable

## O=C(O)Cc1ccccc1Nc1c(Cl)cccc1Cl [DICLOFENAC]
[1]
  Stability: Unstable

## Nc1ccc(C(=O)O)c(O)c1 [AMINOSALICYLIC ACID]
[1]
  Stability: Unstable

## COc1cc(NS(C)(=O)=O)ccc1Nc1c2ccccc2nc2ccccc12 [AMSACRINE]
[6]
  Stability: Unstable

## O=P1(N(CCCl)CCCl)NCCCO1 (configuration not stated) [CYCLOPHOSPHAMIDE ANHYDROUS]
[1]
  Stability: Unstable

## O=C(O)[C@H]1/C(=C/CO)O[C@@H]2CC(=O)N21 [CLAVULANIC ACID]
[6]
  Stability: Unstable

## CCC(C)(C)C(=O)O[C@H]1C[C@@H](C)C=C2C=C[C@H](C)[C@H](CC[C@@H]3C[C@@H](O)CC(=O)O3)[C@H]21 [SIMVASTATIN]
[6]
  Stability: Unstable

## Cc1cccc(CN2CCN(C(c3ccccc3)c3ccc(Cl)cc3)CC2)c1 (configuration not stated) [MECLIZINE]
[2]; probe diethoxyfluorescein
  IC50 shift at 0.5 h: 2
[3]; probe 7-benzyloxyquinoline
  IC50 shift at 0.5 h: > 5
[4]
  Stability: Stable
[5]; [8]
  IC50 shift at 0.5 h: > 5

## C[C@@H](O)[C@H]1C(=O)N2C(C(=O)O)=C(S[C@@H]3CN[C@H](C(=O)N(C)C)C3)[C@H](C)[C@H]12 [MEROPENEM]
[6]
  Stability: Unstable

## CC1(C)O[C@@H]2C[C@H]3[C@@H]4C[C@H](F)C5=CC(=O)C=C[C@]5(C)[C@H]4[C@@H](O)C[C@]3(C)[C@]2(C(=O)CO)O1 [FLUNISOLIDE]
[6]
  Stability: Unstable

## C[C@@H]1[C@H](O)[C@@H](C)/C=C/C=C/C=C/C=C/C=C/C=C/C=C/[C@H](O[C@@H]2O[C@H](C)[C@@H](O)[C@H](N)[C@@H]2O)C[C@@H]2O[C@](O)(C[C@@H](O)C[C@@H](O)[C@H](O)CC[C@@H](O)C[C@@H](O)CC(=O)O[C@H]1C)C[C@H](O)[C@H]2C(=O)O [AMPHOTERICIN B]
[4]
  Stability: Stable
[5]; [8]
  IC50 shift at 0.5 h: < 2

## C#C[C@]1(O)CC[C@H]2[C@@H]3CCc4cc(O)ccc4[C@H]3CC[C@@]21C [ETHINYL ESTRADIOL]
[2]; probe diethoxyfluorescein
  IC50 shift at 0.5 h: 2
[3]; probe 7-benzyloxyquinoline
  IC50 shift at 0.5 h: 2
[6]
  Stability: Unstable

## Cc1cn([C@H]2C=C[C@@H](CO)O2)c(=O)[nH]c1=O [STAVUDINE]
[1]
  Stability: Unstable

## O=NN(CCCl)C(=O)NCCCl [CARMUSTINE]
[1]
  Stability: Unstable

## O=c1ccc2ccccc2o1 [COUMARIN]
[1]
  Stability: Unstable

## CCCc1cc(=O)[nH]c(=S)[nH]1 [PROPYLTHIOURACIL]
[2]
  IC50 shift at 0.5 h: > 5
[3]
  IC50 shift at 0.5 h: > 5
[6]
  Stability: Unstable

## COc1ncnc(NS(=O)(=O)c2ccc(N)cc2)c1OC [SULFADOXINE]
[1]
  Stability: Unstable

## CO[C@H]1C[C@H](O[C@H]2[C@H](C)[C@@H](O[C@@H]3O[C@H](C)C[C@H](N(C)C)[C@H]3OC(C)=O)[C@@H](C)C[C@@]3(CO3)C(=O)[C@H](C)[C@@H](OC(C)=O)[C@@H](C)[C@@H](C)OC(=O)[C@@H]2C)O[C@@H](C)[C@@H]1OC(C)=O [TROLEANDOMYCIN]
[6]
  Stability: Unstable

## O=C(O)c1cc(/N=N/c2ccc(S(=O)(=O)Nc3ccccn3)cc2)ccc1O [SULFASALAZINE]
[4]
  Stability: Stable
[5]; [8]
  IC50 shift at 0.5 h: < 2

## CN(CCOc1ccc(NS(C)(=O)=O)cc1)CCc1ccc(NS(C)(=O)=O)cc1 [DOFETILIDE]
[1]
  Stability: Unstable

## CN(C)c1ccc(O)c2c1C[C@H]1C[C@H]3[C@H](N(C)C)C(O)=C(C(N)=O)C(=O)[C@@]3(O)C(O)=C1C2=O [MINOCYCLINE]
[1]
  Stability: Unstable

## C[C@]12CC[C@@H]3c4ccc(O)cc4CC[C@H]3[C@@H]1CC[C@@H]2O [ESTRADIOL]
[2]; probe diethoxyfluorescein
  IC50 shift at 0.5 h: < 2
[6]
  Stability: Unstable

## CN1CCC[C@@H]1CCO[C@](C)(c1ccccc1)c1ccc(Cl)cc1 [CLEMASTINE]
[2]
  IC50 shift at 0.5 h: 2
[3]
  IC50 shift at 0.5 h: > 5
[4]
  Stability: Stable
[5]
  IC50 shift at 0.5 h: < 2

## C[C@]12CC[C@@H]3c4ccc(O)cc4CC[C@H]3[C@@H]1C[C@@H](O)[C@@H]2O [ESTRIOL]
[1]
  Stability: Unstable

## CC(C)NNC(=O)c1ccncc1 [IPRONIAZID]
[2]; probe diethoxyfluorescein
  IC50 shift at 0.5 h: > 5
[4]
  Stability: Stable

## Sc1ncnc2nc[nH]c12 [MERCAPTOPURINE ANHYDROUS]
[6]
  Stability: Unstable

## COc1ccccc1OCC(O)COC(N)=O (configuration not stated) [METHOCARBAMOL]
[4]
  Stability: Stable
[5]; [8]
  IC50 shift at 0.5 h: < 2

## Cc1coc2c1CCC(C)C2 (configuration not stated) [MENTHOFURAN]
[5]; [8]
  IC50 shift at 0.5 h: < 2

## COc1cc([C@@H]2c3cc4c(cc3[C@@H](O[C@@H]3O[C@@H]5CO[C@@H](C)O[C@H]5[C@H](O)[C@H]3O)[C@H]3COC(=O)[C@H]23)OCO4)cc(OC)c1O [ETOPOSIDE]
[6]
  Stability: Unstable

## CC(=O)Oc1ccccc1C(=O)O [ASPIRIN]
[4]
  Stability: Stable
[5]
  IC50 shift at 0.5 h: < 2

## COc1cccc2c1C(=O)c1c(O)c3c(c(O)c1C2=O)C[C@@](O)(C(=O)CO)C[C@@H]3O[C@H]1C[C@H](N)[C@H](O)[C@H](C)O1 [DOXORUBICIN]
[2]
  IC50 shift at 0.5 h: 2
[3]
  IC50 shift at 0.5 h: > 5
[1]
  Stability: Unstable

## NNc1nncc2ccccc12 [HYDRALAZINE]
[1]
  Stability: Unstable

## CS(=O)(=O)OCCCCOS(C)(=O)=O [BUSULFAN]
[6]
  Stability: Unstable

## Cc1cccc(C)c1NC(=O)C1CCCCN1C (configuration not stated) [MEPIVACAINE]
[2]; probe diethoxyfluorescein
  IC50 shift at 0.5 h: 2
[3]; probe 7-benzyloxyquinoline
  IC50 shift at 0.5 h: 2
[4]
  Stability: Stable

## CN(C)C(=O)Oc1ccc[n+](C)c1 [PYRIDOSTIGMINE]
[5]
  IC50 shift at 0.5 h: 2
[6]
  Stability: Unstable

## O=C1CCc2cc(OCCCCc3nnnn3C3CCCCC3)ccc2N1 [CILOSTAZOL]
[2]
  IC50 shift at 0.5 h: 2
[3]
  IC50 shift at 0.5 h: 2
[4]
  Stability: Stable

## CO[C@@]12[C@H](COC(N)=O)C3=C(C(=O)C(C)=C(N)C3=O)N1C[C@@H]1N[C@@H]12 [MITOMYCIN]
[6]
  Stability: Unstable

## CCc1ccc(CCOc2ccc(CC3SC(=O)NC3=O)cc2)nc1 (configuration not stated) [PIOGLITAZONE]
[1]
  Stability: Unstable

## COc1ccc2[nH]c([S+]([O-])Cc3ncc(C)c(OC)c3C)nc2c1 (configuration not stated) [OMEPRAZOLE]
[2]
  IC50 shift at 0.5 h: 2
[5]
  IC50 shift at 0.5 h: < 2
[6]
  Stability: Unstable

## Cc1c(C)c2c(c(C)c1O)CCC(C)(COc1ccc(CC3SC(=O)NC3=O)cc1)O2 (configuration not stated) [TROGLITAZONE]
[2]
  IC50 shift at 0.5 h: 2
[1]
  Stability: Unstable

## CNC1(C)C2CCC(C2)C1(C)C (configuration not stated) [MECAMYLAMINE]
[4]
  Stability: Stable
[5]
  IC50 shift at 0.5 h: < 2

## CN/C(=N/CCSCc1nc[nH]c1C)NC#N [CIMETIDINE]
[6]
  Stability: Unstable

## CC1=C(CC(=O)O)c2cc(F)ccc2/C1=C\c1ccc([S+](C)[O-])cc1 (configuration not stated)
[1]
  Stability: Unstable

## Cn1cnc([N+](=O)[O-])c1Sc1ncnc2nc[nH]c12 [AZATHIOPRINE]
[6]
  Stability: Unstable

## CN(C)[C@@H]1C(O)=C(C(N)=O)C(=O)[C@@]2(O)C(O)=C3C(=O)c4c(O)cccc4[C@@](C)(O)[C@H]3C[C@@H]12 [TETRACYCLINE]
[1]
  Stability: Unstable

## COC(=O)C1=C(C)NC(C)=C(C(=O)OCC(C)C)C1c1ccccc1[N+](=O)[O-] (configuration not stated) [NISOLDIPINE]
[1]
  Stability: Unstable

## NC(=O)N1c2ccccc2C=Cc2ccccc21 [CARBAMAZEPINE]
[6]
  Stability: Unstable

## CO/N=C(\C(=O)N[C@@H]1C(=O)N2C(C(=O)O)=C(CSc3nc(=O)c(=O)[nH]n3C)CS[C@H]12)c1csc(N)n1 [CEFTRIAXONE]
[6]
  Stability: Unstable

## CN(C)/N=N/c1[nH]cnc1C(N)=O [DACARBAZINE]
[6]
  Stability: Unstable

## CCCCC1C(=O)N(c2ccccc2)N(c2ccc(O)cc2)C1=O (configuration not stated) [OXYPHENBUTAZONE ANHYDROUS]
[6]
  Stability: Unstable
